Measured values taken from US20230321063A1, “COMPOSITIONS AND METHODS TO REDUCE NEUROINFLAMMATION” (Seattle Children's Hospital d/b/a Seattle Children's …, priority 2020, published 2023).

Key:
[1] = test system: Ndufs4(KO) mouse model of LS; assay: Survival studies and overall disease course in Ndufs4(KO) mice; assay type: in vivo
Description: Ndufs4(+/−) mice were bred to produce Ndufs4(KO) (Ndufs4(−/−)) offspring. Mice were weaned at 20-21 days of age. Ndufs4(KO) animals were housed with a minimum of one control littermate for warmth and stimulation. Mice were weighed, and health assessed, a minimum of 3 times per week, every other day (daily for IP injected mice, see herein). Where longitudinal blood point-of-care data was collected, this was performed during these health checks. Wetted chow in a dish on the bottom of each cage, and in-cage water bottles, were provided to all cages housing Ndufs4(KO) mice following the onset of disease so that the ability to find or reach food or water was not a limiting factor for survival.
Doses of each drug was based on published data for use in animals. […] Blood and tissue concentrations reached biologically relevant levels for each of the tested inhibitors.
Pharmacologic interventions and chow formulation. Standard mouse chow was ground to a power and mixed with drugs at the doses desired (see FIGS. 4A-4L). 300 mL of 1% agar melted in sterile water was added per kilogram of powdered chow and the mixture was pelleted and baked at 37° C. for 3-5 hours to dry. Pellets were then stored at 4° C. for short term (up to 90 days) or −20° C. for long-term (up to 6 months) storage. It was previously shown that this processing had no impact on animal health or survival (Johnson et al. Front Genet. 2015; 6:247). […]
To determine whether the benefits of mTOR inhibition in Ndufs4(KO) model result from disruption of PI3K mediated signaling, animals were treated from weaning (post-natal day 21, P21) with potent, orally available, isoform specific inhibitors of the catalytic subunits of PI3K: BYL719, GSK2636771, CAL-101, and IPI-549, inhibitors of p110α, p110β, p110δ, and p110γ, respectively.

Ndufs4(KO) mice [2] = assay: Respiratory measurements by whole-body plethysmography; assay type: in vivo, mouse; settings: 300 mg/kg/day
Description: Respiratory measurements. Breathing parameters were recorded from alert, unrestrained, adult (P60) mice using whole-body plethysmography. Paired 300 ml recording and reference chambers were continuously ventilated (150 ml/min) with either normal air (79% nitrogen and 21% oxygen) or a hypercapnic gas mixture (74% nitrogen, 21% oxygen, and 5% CO2). Pressure differences between the recording and reference chambers were measured (Buxco Respiratory Products) and digitized (Axon Instruments) to visualize respiratory pattern, and simultaneous video recordings were performed to differentiate resting breathing activity from exploratory sniffing and grooming behaviors. Untreated and treated (pexidartinib 300 mg/kg/day) control and Ndufs4(KO) mice were allowed to acclimate to the chambers for 30-40 min prior to acquisition of 35 min of respiratory activity in normal air. The respiratory response to hypercapnia was then tested by ventilating the chambers with hypercapnic gas for 15 min. Respiratory frequency, and breath-to-breath irregularity scores (irreg.score=ABS((N-(N−1))/N)) of frequency and amplitude (peak inspiratory airflow) were quantified during periods of resting breathing (pClamp10 software). During hypercapnic challenges, only data during the final 5 min of the 15 min period were analyzed. […]

[3] = test system: non-lesion CNS tissue in Ndufs4(KO) mice; assay: Brain immunological staining: microglia and astrocytes in cortex and brainstem outside of overt lesions; assay type: in vivo, mouse; settings: 300 mg/kg/day
Description: Brain immunological staining and microscopy. Brains were fixed for 48 hours in 10% formalin at 4° C. Following fixation, brains were moved to a cryoprotectant solution (30% sucrose, 1% DMSO, 100 μM glycine, 1×PBS, 0.45 μm filtered, pH 7.5), and stored for over 48 hours, until the fixed tissues sank to the bottom. Tissues were then placed in OCT media (Tissue-Tek OCT compound, Sakura 0004348-01), frozen in cryoblock holders on dry ice, and stored at −80° C. until sectioned for staining. Cryoblocks were cut at 50 μm thickness using a Leica CM30505 cryostat set at −40° C. Slices were moved to 1×PBS and stored at 4° C. until used for staining. Prior to staining, slices were mounted on slides and briefly dried to adhere.
Antibody staining was performed as follows: slides were first incubated in an antigen retrieval and permeabilization buffer (0.05% Triton X-100, 50 μM digitonin, 10 mM Tris-HCl, 1 mM EDTA, pH 9.0) at 60° C. overnight in a white-light LED illuminated box (to promote photobleaching of tissue autofluorescence). To reduce formaldehyde induced background fluorescence, slides were treated with sodium borohydride in ice cold PBS, added at 1 mg/mL immediately before incubation, on ice for 30 min, then moved to 10 mM glycine 1×PBS, pH 7.4, for 5 min at room temperature. Lipid background fluorescence was then blocked by incubating slides in 0.2 μm filtered Sudan Black B solution (5 mg/mL in 70% ethanol) overnight at room temperature. Slides were then rinsed twice, 5 min each, in 1×PBS. Excess fluid was wiped from the slide, and the tissue was circled using Liquid Blocker PAP pen (Fisher Scientific, NC9827128) to hold staining solutions. Slides were blocked for 15 min at room temperature in 1×PBS with 10% rabbit serum (Gibco, 16120-099) then stained overnight at 4° C. in a mixture of rabbit anti-IBA1-fluorochrome 635 conjugated (WAKO 013-26471) at 1:300, mouse anti-GFAP, Alexa555 conjugated (Cell Signaling, 3656S) at 1:300, and DAPI (Sigma, D9542) at 1 μg/mL. […]

Ndufs4(KO) mice [4] = assay: Isoflurane induced hyperlactemia assay; assay type: in vivo, mouse; settings: 0.4% isoflurane for 30 min, P50, 300 mg/kg/d
Description: Isoflurane induced hyperlactemia assays. All of these experiments were performed at P50. Mice were subject to normal daily monitoring (see survival studies) up until P50. At P50, baseline blood glucose, lactate, and […] (β-HB) levels were measured using point-of-care meters using the tail-prick method, as described. Mice were then immediately exposed to 0.4% isoflurane or carrier gas only (100% oxygen) for 30 min. At the 30 minutes, blood glucose, lactate, and β-HB were measured again.

FC(F)(F)c1ccc(CNc2ccc(Cc3c[nH]c4ncc(Cl)cc34)cn2)cn1 [pexidartinib, 5-[(5-chloro-1H-pyrrolo[2,3-b]pyridin-3-yl)methyl]-N-[[6-(trifluoromethyl)pyridin-3-yl]methyl]pyridin-2-amine]
lifespan of treated Ndufs4(KO) animals relative to treated control mice ([1]; 300 mg/kg/d, drug toxicity appears to limit lifespan): live as long as treated control mice
impact on disease (overall) / disease or survival ([1]; Ndufs4(KO) mice): dramatically attenuates disease
survival ([1]; Ndufs4(KO) mice vs untreated): dramatically extended survival
extension of median survival ([1]; Ndufs4(KO) mice, 300 mg/kg/day in chow): 300%
cause of death of control animals ([1]; control animals on 300 mg/kg/d): died of unknown causes with no evident illness
survival compared to untreated Ndufs4(KO) mice ([1]; each of 100-300 mg/kg/day, dose-dependent): statistically significant increase
overt signs of severe neurologic sequelae prior to death ([1]; majority of high dose animals): did not show overt signs of severe neurologic sequelae prior to death
respiratory dysfunction in normal air (Ndufs4(KO) mice [2]; P60): completely rescued
respiratory response to increased CO2 (Ndufs4(KO) mice [2]; P60, 5% CO2): completely rescued
astrocyte numbers in non-lesion CNS tissue [3]: rescued to control levels
microglia numbers in non-lesion CNS tissue ([3]; beyond that of untreated control animals): near complete depletion of microglia
astrocytosis and microgliosis in non-lesion CNS tissue ([3]; cortex and brainstem outside overt lesions): prevented both forms of gliosis
blood lactate spike after isoflurane exposure (Ndufs4(KO) mice [4]): fully suppressed this lactate spike
